# Data: patent US11273167B2, “Compositions and methods for modulating ABHD2 activity” (The Regents of the University of California, priority 2015, dated 2022)
# “Also recorded” adds a separate entry of the source. Like-named read-outs stand apart in the source and are kept apart here.
# Tests used:
# human CatSper channel [1] = conditions: shown previously (Lishko et al., 2011); cited from earlier work
# ABHD2 = biological target: T1, ABHD2 (Homo sapiens, UniProt P08910); experiment: P4* UV cross-linking and streptavidin pull-down from human sperm, ABHD2 western blot; assay type: binding; conditions: 250 nM P4*
# T1 construct: endogenous in cells; host or cells: human spermatozoa
# T1 sequence (P08910 1-425): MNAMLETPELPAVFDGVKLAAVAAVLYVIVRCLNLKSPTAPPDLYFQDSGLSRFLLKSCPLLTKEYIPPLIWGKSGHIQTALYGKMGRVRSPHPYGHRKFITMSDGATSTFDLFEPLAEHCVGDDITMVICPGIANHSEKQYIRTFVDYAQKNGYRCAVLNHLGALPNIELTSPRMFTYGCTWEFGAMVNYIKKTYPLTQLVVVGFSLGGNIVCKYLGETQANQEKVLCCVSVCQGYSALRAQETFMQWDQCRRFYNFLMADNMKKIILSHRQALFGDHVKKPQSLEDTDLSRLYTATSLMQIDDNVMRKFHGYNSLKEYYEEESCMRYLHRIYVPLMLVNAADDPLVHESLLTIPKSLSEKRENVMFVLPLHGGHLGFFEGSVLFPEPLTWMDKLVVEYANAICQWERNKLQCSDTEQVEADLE
# Experimental: After collection, sperm cells were treated with 0.5 units (U) of PI-PLC ([…]; Life Technologies, Carlsbad, Calif.) and incubated at 37° C. for an hour. […] Lysates were added to streptavidin coated magnetic beads (65001; Life Technologies, Carlsbad, Calif.) on ice for another thirty minutes with gentle agitation. Bound proteins were eluted by boiling in Laemmli Sample Buffer in the presence of beta-mercaptoethanol and subjected to SDS-polyacrylamide gel electrophoresis. […] Bands were excised and subjected to in-gel trypsinization after which peptides were extracted and dried for use in proteomic analysis. Protease inhibitors were used throughout the following procedure. Highly motile sperm swim-up fraction was subjected to osmotic shock by a 5 min incubation in 0.5×HS solution, addition of 10 mM EDTA and 10 mM DTT for 10 min, and sonication in a water bath at 25° C. for 5 min. Osmolarity was adjusted by addition of 10×PBS. 5× Laemmli sample buffer was added to a final 1× concentration and the DTT concentration adjusted to 20 mM. An additional 5 min sonication and boiling at 100° C. for 5 min were performed. Total crude cell lysate was loaded onto a 4-20% gradient Tris-HCl CriterionTM SDS-PAGE gel (BioRad). […] Following transfer to PVDF membranes, blots were blocked in 0.1% PBS-Tween20 with 3% IgG free BSA for 15 min and incubated in primary antibodies overnight at 4° C. […]
# human CatSper channel [2] = experiment: Whole-cell patch-clamp recording of CatSper currents (ICatSper) from human spermatozoa; assay type: cell-based; conditions: for effect on P4-dependent activation of CatSper (CatSper P4 sensitivity): human spermatozoa treated with the agent, then P4; for activation of CatSper current (ICatSper): whole-cell patch clamp
# Experimental: (§1) All CatSper recordings was performed as described in (Lishko et al., 2013; Lishko et al., 2011). Briefly, gigaohm seal between the patch pipette and human spermatozoon was formed at the cytoplasmic droplet. Spermatozoa were patched either at the cytoplasmic droplet or, if the cytoplasmic droplet was inconspicuous, at the neck region. Seals were formed in high saline (HS) solution containing: 130 mM NaCl, 5 mM KCl, 1 mM MgSO4, 2 mM CaCl2, 5 mM glucose, 1 mM sodium pyruvate, 10 mM lactic acid, 20 mM HEPES, pH 7.4 adjusted with NaOH, 320 mOsm/L. Transition into the whole-cell mode was performed by applying short voltage pulses. Access resistance was 25-40 M. Cells were stimulated every 5 s. Data were sampled at 2-5 kHz and filtered at 1 kHz. Pipettes (11-17 MΩ) for whole-cell patch-clamp recordings of monovalent CatSper currents were filled with (in mM): 130 Cs-methanesulfonate, 70 HEPES, 3 EGTA, 2 EDTA, 0.5 TrisHCl, pH 7.4 adjusted with CsOH. Bath divalent free (DVF) solution for recording of monovalent CatSper currents contained (in mM): 140 Cs-methanesulfonate, 40 HEPES, 1 EDTA, pH 7.4 adjusted with CsOH. HEPES was substituted for MES in the event when acidic extracellular pH was used. HS solution was used to record baseline current while measuring monovalent CatSper currents (Ca^2+ in HS solution inhibits monovalent CatSper currents and causes Ca^2+-dependent inactivation of CatSper channels). Osmolarities of above mentioned solutions were approximately 321 mOsm/L and 335 mOsm/L for bath and pipette solutions, respectively. All electrophysiology experiments were performed at ambient temperature. IcatSper were elicited by voltage ramps from a holding potential of 0 mV. Ramps were applied from −80 mV to +80 mV. Data were analysed with Origin 7.0 and Clampfit 9.2. Statistical data were calculated as the mean±S.E.M., and (n) indicates number of experiments. To determine IcatSper inactivation rate current densities extracted from voltage ramps and acquired at +80 pA were plotted against time. The data were fitted with Boltzmann equation y=1/(1+exp((x−t)/dx)) and mean ti numbers were determined from (n) independent experiments. Statistical significance (t-test) is indicated by (**, p≤0.01 and *, p≤0.05).
# (§2) Data were analyzed with Origin 7.0 and Clampfit 9.2. Statistical data were calculated and represented everywhere in text as the mean±S.E.M., and (n) indicates number of experiments. To determine ICatSper inactivation rate current densities extracted from voltage ramps and acquired at +80 pA were plotted against time. The data were fitted with Boltzmann equation y=1/[1+exp((x−τ)/dx)] and mean τ numbers were determined from (n) independent experiments. Hill equation was used to build dose-response curve: y=Vmax*x^n/(k^n+x^n). where n defines Hill slope factor, k defines IC50, and Vmax is close to 100% inhibition. Statistical significance (t test) is indicated by (****P<0.0001, ***P<0.001, **P<0.005 and *P<0.05).
# mouse CatSper = biological target: T2, mouse CatSper (Mus musculus, UniProt A2ARP9+Q80W99+Q8BVN3+Q91ZR5); experiment: Whole-cell patch-clamp recording of ICatSper from mouse spermatozoa; assay type: cell-based
# T2 construct: Mouse spermatozoa were isolated from cauda epididymis; endogenous in cells; host or cells: mouse cauda epididymal spermatozoa
# human CatSper channel [3] = biological target: human CatSper channel (Homo sapiens, UniProt Q7RTX7+Q86XQ3+Q8NEC5+Q96P56); experiment: Whole-cell patch-clamp recording of CatSper currents (ICatSper) from human spermatozoa; assay type: cell-based
# Chain of human CatSper channel (Homo sapiens, UniProt Q7RTX7+Q86XQ3+Q8NEC5+Q96P56) (Q8NEC5 whole entry): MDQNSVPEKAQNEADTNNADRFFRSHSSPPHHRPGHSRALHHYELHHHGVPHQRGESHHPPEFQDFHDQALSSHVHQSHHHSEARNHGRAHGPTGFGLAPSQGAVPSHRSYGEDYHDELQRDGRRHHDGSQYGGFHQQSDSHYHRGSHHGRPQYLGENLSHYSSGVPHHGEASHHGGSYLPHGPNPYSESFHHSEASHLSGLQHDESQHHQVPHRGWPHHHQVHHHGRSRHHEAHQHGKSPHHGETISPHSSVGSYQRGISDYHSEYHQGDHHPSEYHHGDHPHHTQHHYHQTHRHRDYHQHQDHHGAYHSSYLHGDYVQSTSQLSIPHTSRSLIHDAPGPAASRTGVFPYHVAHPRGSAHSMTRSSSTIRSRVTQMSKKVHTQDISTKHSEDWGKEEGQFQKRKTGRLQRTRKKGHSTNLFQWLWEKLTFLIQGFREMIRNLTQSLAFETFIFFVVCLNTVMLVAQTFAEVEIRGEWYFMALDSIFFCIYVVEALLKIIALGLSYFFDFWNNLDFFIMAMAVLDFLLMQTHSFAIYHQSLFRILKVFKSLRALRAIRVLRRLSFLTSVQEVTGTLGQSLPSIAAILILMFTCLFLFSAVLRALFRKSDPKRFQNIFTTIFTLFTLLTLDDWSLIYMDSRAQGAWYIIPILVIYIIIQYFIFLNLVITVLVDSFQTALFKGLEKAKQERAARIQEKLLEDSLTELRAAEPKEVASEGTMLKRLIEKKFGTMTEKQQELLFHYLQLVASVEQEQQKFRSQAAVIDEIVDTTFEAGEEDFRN
# Chain of human CatSper channel (Homo sapiens, UniProt Q7RTX7+Q86XQ3+Q8NEC5+Q96P56) (Q86XQ3 whole entry): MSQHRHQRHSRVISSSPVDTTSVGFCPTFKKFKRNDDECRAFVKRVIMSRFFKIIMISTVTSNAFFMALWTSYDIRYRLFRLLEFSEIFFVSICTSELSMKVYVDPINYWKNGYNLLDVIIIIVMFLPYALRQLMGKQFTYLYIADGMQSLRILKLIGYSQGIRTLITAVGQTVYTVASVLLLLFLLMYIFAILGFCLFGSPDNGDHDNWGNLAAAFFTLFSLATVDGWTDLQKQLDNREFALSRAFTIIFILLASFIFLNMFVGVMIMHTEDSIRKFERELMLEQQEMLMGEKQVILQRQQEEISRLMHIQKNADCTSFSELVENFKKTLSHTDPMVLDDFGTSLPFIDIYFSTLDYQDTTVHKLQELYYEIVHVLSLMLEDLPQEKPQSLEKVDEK
# Chain of human CatSper channel (Homo sapiens, UniProt Q7RTX7+Q86XQ3+Q8NEC5+Q96P56) (Q96P56 whole entry): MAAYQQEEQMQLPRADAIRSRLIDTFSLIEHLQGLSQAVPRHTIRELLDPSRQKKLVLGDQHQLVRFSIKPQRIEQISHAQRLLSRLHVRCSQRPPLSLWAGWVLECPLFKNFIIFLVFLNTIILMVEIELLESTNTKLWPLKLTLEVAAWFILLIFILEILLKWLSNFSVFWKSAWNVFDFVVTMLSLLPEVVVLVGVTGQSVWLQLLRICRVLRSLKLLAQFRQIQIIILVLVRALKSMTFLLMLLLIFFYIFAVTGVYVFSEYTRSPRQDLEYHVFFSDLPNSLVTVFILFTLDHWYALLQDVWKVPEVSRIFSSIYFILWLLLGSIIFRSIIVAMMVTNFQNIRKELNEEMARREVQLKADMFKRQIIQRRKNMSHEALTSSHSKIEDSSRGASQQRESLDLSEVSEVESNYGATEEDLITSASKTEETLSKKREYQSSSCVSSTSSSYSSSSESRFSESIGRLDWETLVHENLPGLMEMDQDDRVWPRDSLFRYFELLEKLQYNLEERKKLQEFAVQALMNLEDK
# Chain of human CatSper channel (Homo sapiens, UniProt Q7RTX7+Q86XQ3+Q8NEC5+Q96P56) (Q7RTX7 whole entry): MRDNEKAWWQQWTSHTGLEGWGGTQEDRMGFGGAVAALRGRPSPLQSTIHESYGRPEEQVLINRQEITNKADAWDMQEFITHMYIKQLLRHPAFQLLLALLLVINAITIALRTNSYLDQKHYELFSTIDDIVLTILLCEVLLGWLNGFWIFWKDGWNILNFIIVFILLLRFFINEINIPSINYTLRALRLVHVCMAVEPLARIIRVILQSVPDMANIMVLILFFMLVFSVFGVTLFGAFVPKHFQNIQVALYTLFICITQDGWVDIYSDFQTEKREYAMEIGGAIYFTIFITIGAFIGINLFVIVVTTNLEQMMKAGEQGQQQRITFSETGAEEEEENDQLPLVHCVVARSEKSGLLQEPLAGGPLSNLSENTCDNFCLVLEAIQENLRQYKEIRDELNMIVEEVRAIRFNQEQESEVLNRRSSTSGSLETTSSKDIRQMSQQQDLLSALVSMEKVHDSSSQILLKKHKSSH
# Experimental: as §1, §2
# mouse spermatozoa = experiment: Acrosome exocytosis assessment in live capacitated mouse sperm; assay type: cell-based; conditions: 3 μM P4, 3 μM AA
# [4] = human spermatozoa, extracellular application
molecule,measurement,setting,value
estrogen,interference with P4 activation of CatSper,human CatSper channel [1],do not interfere with P4 activation of CatSper
same,ABHD2 in P4* pull-down in the presence of competing steroid,ABHD2,ABHD2 presence in pull-down experiments
OCC(O)CO [glycerol],effect on P4-dependent activation of CatSper (CatSper P4 sensitivity),human CatSper channel [2],did not ablate ICatSper or its regulation by P4
same,effect on nascent/basal CatSper current,human CatSper channel [2]; [4],did not ablate ICatSper
lysophosphatidylethanolamine [lyso-PE],effect on nascent/basal CatSper current,human CatSper channel [2]; [4],Neither lysophosphatidylinositol (lyso-PI) nor lysophosphatidylethanolamine (lyso-PE) affected nascent CatSper current
"CCCCC[C@H](O)/C=C/[C@H]1[C@H](O)CC(=O)[C@@H]1CCCCCCC(=O)O [PGE1, prostaglandin E1]",activation of CatSper current (ICatSper),human CatSper channel [2]; human spermatozoa,stimulated CatSper activation
"CCCCC/C=C\C/C=C\C/C=C\C/C=C\CCCC(=O)OC(CO)CO [2-AG, 2-arachidonoylglycerol]",inhibition of mouse ICatSper,mouse CatSper; compared with human ICatSper,inhibits mouse ICatSper but with less efficacy than it inhibits human ICatSper
same,percent inhibition against the outward current,"mouse CatSper; mouse CatSper, n=5",73.9±4.4%
same,inhibition of ICatSper on intracellular application,human CatSper channel [3],could not mimic this effect
same,percent inhibition of CatSper outward current,human CatSper channel [3],92.4±3.5%
same,"rate of CatSper inactivation, decline in current amplitude τ",human CatSper channel [3],1.6 ± 0.3 min
same,IC50,"human CatSper channel [3]; read-out: median inhibitory concentration (IC50) of ICatSper, inward currents",670 nM
same,IC50,"human CatSper channel [3]; read-out: median inhibitory concentration (IC50) of ICatSper, outward currents",350 nM
same,effect on nascent/basal CatSper current,human CatSper channel [2],inhibited ICatSper
CC(=O)[C@@]1(O)CC[C@H]2[C@@H]3CCC4=CC(=O)CC[C@]4(C)[C@H]3CC[C@@]21C [17-OH—P],activation of CatSper current (ICatSper),human CatSper channel [2]; human spermatozoa,reversibly activated
"CCCCC/C=C\C/C=C\C/C=C\C/C=C\CCCC(=O)OCC(O)CO (centres unmarked) [1-AG, 1-arachidonoylglycerol]",percent inhibition of CatSper outward current,human CatSper channel [3],85.0±0.5%
same,"rate of CatSper inactivation, decline in current amplitude τ",human CatSper channel [3],2.7 ± 0.2 min
same,effect on nascent/basal CatSper current,human CatSper channel [2],inhibited ICatSper
"CCCCC/C=C\C/C=C\C/C=C\C/C=C\CCCC(=O)NCCO [AEA, anandamide]",effect on nascent/basal CatSper current,human CatSper channel [2],does not change nascent CatSper behaviour; also recorded: had no effect
O=C(Nc1ccccc1)N1CCC(Cc2cnc3ccccc3c2)CC1 [PF750],effect on P4-dependent activation of CatSper (CatSper P4 sensitivity),human CatSper channel [2],did not change CatSper sensitivity to P4
lysophosphatidylinositol [lyso-PI],effect on nascent/basal CatSper current,human CatSper channel [2]; [4],Neither lysophosphatidylinositol (lyso-PI) nor lysophosphatidylethanolamine (lyso-PE) affected nascent CatSper current
"CCCCC/C=C\C/C=C\C/C=C\C/C=C\CCCC(=O)O [AA, arachidonic acid]",regulation of CatSper by arachidonic acid,human CatSper channel [2]; ICatSper at +80 mV and −80 mV over time,Dual Regulator of CatSper
same,stimulation of mouse acrosome reaction (AR),mouse spermatozoa,stimulate mouse AR to similar levels
